In patent US12037345B2, “Heterobicyclic compounds for inhibiting the activity of SHP2” (TAIHO PHARMACEUTICAL CO., LTD., priority 2018, dated 2024) one finds IC50 data, which are given here for 20 molecules.

For orientation: pIC50 means the IC50 on a negative log10 scale, so that one unit is a factor of ten. What is called IC50 is the point on the concentration scale where inhibition reaches its midpoint.

In one experiment the target is SHP2 (Homo sapiens (Human), UniProt Q06124). In words: SHP2 Biochemical Assay (DiFMUP conversion, pIRS1-activated). Put shortly:
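Human SHP2 (10 pM) pre-incubated 30 min with compound and […] pIRS1 activating peptide, then 50 μM DiFMUP added; buffer 25 mM Bis-Tris propane pH 7.0, 150 mM NaCl, 5% DMSO. Fluorescence rate (ex 360/em 450 nm) over 30 min; IC50 by four-parameter fit, averaged across experiments.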

Experiment [1] concerns pERK (phospho-p44/42 ERK) in HCC827 cells. Briefly: Cellular pERK Inhibition Assay, Method A (In-Cell Western). Conditions: Homo sapiens; for pIC50: Table 19, head prints unit as "-M", read-out: pERK (IC50) Method A. In kind it is cell-based. Put shortly:
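HCC827 cells in RPMI/10% FBS were treated with compounds in serum-free medium (0.2% DMSO final) at 37 °C for the indicated time, in quadruplicate. Fixed cells were immunostained for phospho-p44/42 ERK and read by infrared imaging. Blank-subtracted signal was expressed as % of DMSO control; IC50 from four-parameter logistic fit, averaged across experiments.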

The mark [2] stands for this setting: Table 19, head prints unit as "-M".

pIC50: −log10 of the molar value. Like-named read-outs stand apart in the source and are kept apart here.

SHP2, sequence (Q06124 whole entry): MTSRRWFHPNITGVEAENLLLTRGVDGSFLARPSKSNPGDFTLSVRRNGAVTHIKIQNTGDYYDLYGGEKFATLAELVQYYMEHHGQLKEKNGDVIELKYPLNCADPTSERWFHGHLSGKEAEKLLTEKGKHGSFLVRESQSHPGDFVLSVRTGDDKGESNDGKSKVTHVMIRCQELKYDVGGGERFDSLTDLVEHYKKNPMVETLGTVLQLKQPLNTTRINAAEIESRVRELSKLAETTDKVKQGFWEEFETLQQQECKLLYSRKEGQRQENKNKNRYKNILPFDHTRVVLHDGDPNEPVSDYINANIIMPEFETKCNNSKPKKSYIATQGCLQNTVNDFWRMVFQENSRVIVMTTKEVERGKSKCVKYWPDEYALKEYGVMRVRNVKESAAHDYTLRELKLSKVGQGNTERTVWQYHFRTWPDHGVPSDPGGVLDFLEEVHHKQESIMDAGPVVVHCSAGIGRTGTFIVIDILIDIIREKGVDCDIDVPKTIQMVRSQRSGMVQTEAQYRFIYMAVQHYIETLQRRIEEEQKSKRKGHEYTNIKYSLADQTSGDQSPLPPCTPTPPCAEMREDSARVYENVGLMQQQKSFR

Regarding `Cn1cc2c(Cl)c(-c3c[nH]c4nc(N5CC[C@H](N)C5)n(C)c(=O)c34)ccc2n1` [Example 43, (S)-2-(3-aminopyrrolidin-1-yl)-5-(4-chloro-2-methyl-2H-indazol-5-yl)-3-methyl-3,7-dihydro-4H-pyrrolo[2,3-d]pyrimidin-4-one], the pIC50 at SHP2 (setting [2]) is 7.46; in experiment [1], 6.14.

Consider `Cn1cc2c(Cl)c(-c3c[nH]c4nc(N5CC6CCCC(C5)N6)n(C)c(=O)c34)ccc2n1` [Example 30, 2-(3,9-diazabicyclo[3.3.1]nonan-3-yl)-5-(4-chloro-2-methyl-2H-indazol-5-yl)-3-methyl-3,7-dihydro-4H-pyrrolo[2,3-d]pyrimidin-4-one], for which the pIC50 on SHP2 (setting [2]) was 8.01; in experiment [1], 6.66.

In the case of `CCn1nc2ccc(-c3n[nH]c4nc(N5[C@H]6CC[C@@H]5[C@H](NC)C6)n(C)c(=O)c34)c(Cl)c2c1Cl` [Example 128, 3-(3,4-dichloro-2-ethyl-2H-indazol-5-yl)-5-methyl-6-((1R,2R,4S)-2-(methylamino)-7-azabicyclo[2.2.1]heptan-7-yl)-1,5-dihydro-4H-pyrazolo[3,4-d]pyrimidin-4-one], the pIC50 is 7.96 against SHP2 (setting [2]) and 6.80 in experiment [1].

Consider `CN(C)C(=O)CCn1nc2ccc(-c3c[nH]c4nc(N5C6CCC5CNC6)n(C)c(=O)c34)c(Cl)c2c1Cl` [Example 89, 3-(5-(2-(3,8-diazabicyclo[3.2.1]octan-8-yl)-3-methyl-4-oxo-4,7-dihydro-3H-pyrrolo[2,3-d]pyrimidin-5-yl)-3,4-dichloro-2H-indazol-2-yl)-N,N-dimethylpropanamide], for which the pIC50 on SHP2 (setting [2]) was 7.85; in experiment [1], 6.27.

In the case of `CN[C@@H]1C[C@@H]2CC[C@H]1N2c1nc2[nH]cc(-c3ccc4ncsc4c3Cl)c2c(=O)n1C` [Example 105, 5-(7-chlorobenzo[d]thiazol-6-yl)-3-methyl-2-((1R,2R,4S)-2-(methylamino)-7-azabicyclo[2.2.1]heptan-7-yl)-3,7-dihydro-4H-pyrrolo[2,3-d]pyrimidin-4-one], the values for the negative-log IC50 (pIC50) (against SHP2 (setting [2]); in experiment [1]) were 8.30 and 6.80, respectively.

As for `Cn1nc2ccc(-c3c[nH]c4nc(N5[C@@H]6CC[C@H]5C[C@@H](N)C6)n(C)c(=O)c34)c(Cl)c2c1Cl` [Example 78, 2-(endo-3-amino-8-azabicyclo[3.2.1]octan-8-yl)-5-(3,4-dichloro-2-methyl-2H-indazol-5-yl)-3-methyl-3,7-dihydro-4H-pyrrolo[2,3-d]pyrimidin-4-one], the pIC50 against SHP2 (setting [2]) was 8.22; in experiment [1] it was 6.89.

Take `Cn1cc2c(Cl)c(-c3c[nH]c4nc(N5CC(N)C(F)(F)C5)n(C)c(=O)c34)ccc2n1` (stereo not shown) [Example 53, 2-(4-amino-3,3-difluoropyrrolidin-1-yl)-5-(4-chloro-2-methyl-2H-indazol-5-yl)-3-methyl-3,7-dihydro-4H-pyrrolo[2,3-d]pyrimidin-4-one]: the pIC50 at SHP2 (setting [2]) was 6.48; in experiment [1] it was 5.51.

`CCn1cc2c(Cl)c(-c3c[nH]c4nc(N5C6CCCC5CNC6)n(C)c(=O)c34)ccc2n1` [Example 66, 2-(3,9-diazabicyclo[3.3.1]nonan-9-yl)-5-(4-chloro-2-ethyl-2H-indazol-5-yl)-3-methyl-3,7-dihydro-4H-pyrrolo[2,3-d]pyrimidin-4-one]: the pIC50 on SHP2 (setting [2]) is 8.09; in experiment [1], 7.09.

In the case of `CCn1cc2c(Cl)c(-c3c[nH]c4nc(N5CCC(C)(CN)CC5)n(C)c(=O)c34)ccc2n1` [Example 2, 2-(4-(aminomethyl)-4-methylpiperidin-1-yl)-5-(4-chloro-2-ethyl-2H-indazol-5-yl)-3-methyl-3,7-dihydro-4H-pyrrolo[2,3-d]pyrimidin-4-one], the negative-log IC50 (pIC50) was 7.85 at SHP2 (setting [2]) and 6.89 in experiment [1].

For `CN[C@@H]1C[C@@H]2CC[C@H]1N2c1nc2[nH]nc(-c3ccc4nn(C)cc4c3Cl)c2c(=O)n1C` [Example 120, 3-(4-chloro-2-methyl-2H-indazol-5-yl)-5-methyl-6-((1R,2R,4S)-2-(methylamino)-7-azabicyclo[2.2.1]heptan-7-yl)-1,5-dihydro-4H-pyrazolo[3,4-d]pyrimidin-4-one], the pIC50 at SHP2 (setting [2]) was 7.54; in experiment [1], 6.26.

`Cn1cc2cc(-c3c[nH]c4nc(N5[C@@H]6CC[C@H]5C[C@@H](N)C6)n(C)c(=O)c34)ccc2n1` [Example 67, 2-(endo-3-amino-8-azabicyclo[3.2.1]octan-8-yl)-3-methyl-5-(2-methyl-2H-indazol-5-yl)-3,7-dihydro-4H-pyrrolo[2,3-d]pyrimidin-4-one]: the pIC50 is 6.47 against SHP2 (setting [2]) and 5.47 in experiment [1].

As to `Cn1cc2c(Cl)c(-c3c[nH]c4nc(N5C[C@H]6C[C@@H](C5)[C@H]6N)n(C)c(=O)c34)ccc2n1` [Example 34, 2-(endo-6-amino-3-azabicyclo[3.1.1]heptan-3-yl)-5-(4-chloro-2-methyl-2H-indazol-5-yl)-3-methyl-3,7-dihydro-4H-pyrrolo[2,3-d]pyrimidin-4-one], the pIC50 at SHP2 (setting [2]) is 6.80; in experiment [1], 5.64.

Regarding `Cn1nc2ccc(-c3c[nH]c4nc(N5C[C@H]6CC[C@@H]5[C@@H]6N)n(C)c(=O)c34)c(F)c2c1Cl` [Example 174, 2-((1R,4R,7R)-7-amino-2-azabicyclo[2.2.1]heptan-2-yl)-5-(3-chloro-4-fluoro-2-methyl-2H-indazol-5-yl)-3-methyl-3,7-dihydro-4H-pyrrolo[2,3-d]pyrimidin-4-one], at SHP2 (Table 20), the pIC50 is 8.52. Also, in experiment [1] (Table 20, read-out: pERK (IC50, μM) Method A), the concentration for half-maximal inhibition (IC50) turned out to be 0.021 µM.

`CCn1nc2ccc(-c3c[nH]c4nc(N5[C@H]6CC[C@@H]5[C@H](N)C6)n(C)c(=O)c34)c(Cl)c2c1C#N` [Example 159, 5-(2-((1R,2R,4S)-2-Amino-7-azabicyclo[2.2.1]heptan-7-yl)-3-methyl-4-oxo-4,7-dihydro-3H-pyrrolo[2,3-d]pyrimidin-5-yl)-4-chloro-2-ethyl-2H-indazole-3-carbonitrile]: the negative logarithm of the IC50 (pIC50) at SHP2 (setting [2]) is 8.46; in experiment [1], 6.82.

As for `C[C@H]1CN(c2nc3[nH]cc(-c4ccc5nn(C)cc5c4Cl)c3c(=O)n2C)CCN1` [Example 45, (S)-5-(4-chloro-2-methyl-2H-indazol-5-yl)-3-methyl-2-(3-methylpiperazin-1-yl)-3,7-dihydro-4H-pyrrolo[2,3-d]pyrimidin-4-one], the results for the pIC50 (at SHP2 (setting [2]); in experiment [1]) were 6.96 and 5.82, respectively.

In the case of `Cc1cc(-c2c[nH]c3nc(N4[C@@H]5CC[C@H]4C[C@@H](N)C5)n(C)c(=O)c23)c(Cl)c2cn(C)nc12` [Example 76, 2-(endo-3-amino-8-azabicyclo[3.2.1]octan-8-yl)-5-(4-chloro-2,7-dimethyl-2H-indazol-5-yl)-3-methyl-3,7-dihydro-4H-pyrrolo[2,3-d]pyrimidin-4-one], the pIC50 is 7.51 at SHP2 (setting [2]) and 6.74 in experiment [1].

On to `CN[C@@H]1C[C@@H]2CC[C@H]1N2c1nc2[nH]cc(-c3ccc4nn(C)c(Cl)c4c3Cl)c2c(=O)n1C` [Example 104, 5-(3,4-dichloro-2-methyl-2H-indazol-5-yl)-3-methyl-2-((1R,2R,4S)-2-(methylamino)-7-azabicyclo[2.2.1]heptan-7-yl)-3,7-dihydro-4H-pyrrolo[2,3-d]pyrimidin-4-one], for which the pIC50 against SHP2 (setting [2]) is 8.57; in experiment [1], 7.08.

On to `CCn1cc2c(Cl)c(-c3n[nH]c4nc(N5[C@@H]6CC[C@H]5C[C@@](C)(N)C6)n(C)c(=O)c34)ccc2n1` [Example 115, 6-(endo-3-amino-3-methyl-8-azabicyclo[3.2.1]octan-8-yl)-3-(4-chloro-2-ethyl-2H-indazol-5-yl)-5-methyl-1,5-dihydro-4H-pyrazolo[3,4-d]pyrimidin-4-one], for which the pIC50 at SHP2 (setting [2]) was 7.34; in experiment [1] it was 6.31.

On to `Cn1cc2c(Cl)c(-c3c[nH]c4nc(N5CCC6(CCCN6)CC5)n(C)c(=O)c34)ccc2n1` [Example 38, 5-(4-chloro-2-methyl-2H-indazol-5-yl)-3-methyl-2-(1,8-diazaspiro[4.5]decan-8-yl)-3,7-dihydro-4H-pyrrolo[2,3-d]pyrimidin-4-one], for which the pIC50 against SHP2 (setting [2]) was 7.13; in experiment [1], 5.85.

For the molecule `Cn1cc2c(Cl)c(-c3c[nH]c4nc(N5[C@@H]6CC[C@H]5[C@H](F)[C@@H](N)C6)n(C)c(=O)c34)ccc2n1` [Example 130, 2-((1S,2R,3S,5R)-3-amino-2-fluoro-8-azabicyclo[3.2.1]octan-8-yl)-5-(4-chloro-2-methyl-2H-indazol-5-yl)-3-methyl-3,7-dihydro-4H-pyrrolo[2,3-d]pyrimidin-4-one], the pIC50 is 7.20 on SHP2 (setting [2]) and 6.10 in experiment [1].
